For assay [1], the system named is E. coli. As to the kind of experiment: Checkerboard assay (MIC in combination, FIC index). Type of assay: cell-based, Escherichia coli. On the set-up: MIC of colistin: unit not given here. Conditions: for MIC of colistin: colistin-resistant E. coli FORC81. As for the experimental part: LNT113 was vertically diluted 2-fold and the antibiotic was serially diluted horizontally in a 96-well plate. Bacterium at a concentration of 10^6 CFU/ml were added to each well in a CAA medium. […] The fractional inhibitory concentration (FIC) for the LNT113 or antibiotic was calculated by dividing the MIC of two drugs by combining it with the MIC of each drug alone. […] The FICI was considered as a synergistic effect ≤0.5, an additive >0.5 ˜≤1, an independent effect (indifference)>1.0 ˜≤2, and an antagonistic effect (antagonism) >2.

For assay [2], the system named is E. coli. Conditions: cited from earlier work.
In assay [3] the test system is E. coli. The experiment in a line: Antibacterial activity analysis (colony count after 2 hours in buffer). Conditions: colistin-resistant E. coli FORC81; 2 μM, 2 hours. It counts as cell-based, Escherichia coli. As for the experimental part: The antibacterial activity of the purified protein was tested for E. coli and various K. pneumoniae strains. The bacterium were grown to an exponential phase (OD600=0.5) and harvested by centrifugation at 12,000×g for 3 minutes. Then, the pellets were washed with reaction buffer solution (20 mM Tris-HCl, pH 7.5) and diluted to about 10^6 cells/ml in the buffer solution. Then, 100 μl bacterial suspension was mixed with the purified endolysin of 100 μl in the reaction buffer solution and incubated at 37° C. for 2 hours. Finally, the mixture was diluted with PBS and loaded on an LB plate. After culturing at 37° C. overnight, the bacterial colonies were counted. All the analysis was performed in triplicate.
The same reaction was performed for the selected subject bacterium in 20 mM HEPES-NaOH, 150 mM NaCl [pH 7.4], and the unique antibacterial activity of Tris and dependence of endolysin for turgor pressure were excluded (FIG. 10a and FIG. 10b). […] The bacterial cells grown geometrically were cultured with 2 μM endolysin in low tonicity buffers (20 mM Tris-HCl, pH 7.5 or 20 mM HEPES, pH 7.5) or high tonicity buffers (buffer solution comprising 150 mM NaCl) at 37° C. for 2 hours. The cells treated with storage buffer solution (20 mM Tris-HCl, pH 7.5, 150 mM NaCl buffer solution (pH 7.5)) were used as a negative control group. The dotted line represents the detection limit (1 Log CFU/ml).
For this, endolysin EC340 at a concentration of 2 μM and each test bacterium were added to reaction buffer (20 mM Tris-Cl, pH 7.5) so that the final concentration was to be 200 μl, and were left at 37° C. for 2 hours. After 2 hours, the number of colonies of Acinetobacter baumannii, Pseudomonas aeruginosa and Escherichia coli was confirmed, and the result was shown in FIG. 3.

[4] abbreviates: antibiotic combined with LNT113, E. coli ATCC 8739.
Setting [5] is: antibiotic combined with LNT113, E. coli ATCC 51739.
The mark [6] stands for this setting: antibiotic combined with LNT113, E. coli CCARM 1A746.
Where [7] appears, read: antibiotic combined with LNT113, E. coli FORC81.
Where [8] appears, read: antibiotic combined with LNT113, E. coli UPEC 3150.
The mark [9] stands for this setting: antibiotic combined with LNT113, E. coli strains overall.

“Also recorded” adds a separate entry of the source. Where two headings read alike, the source gives them in different places. Some results are limits rather than exact numbers.

In the case of `CC[C@H]1OC(=O)[C@H](C)[C@@H](O[C@H]2C[C@@](C)(OC)[C@@H](O)[C@H](C)O2)[C@H](C)[C@@H](O[C@@H]2O[C@H](C)C[C@H](N(C)C)[C@H]2O)[C@](C)(O)C[C@@H](C)CN(C)[C@H](C)[C@@H](O)[C@]1(C)O` [Azithromycin], the “Fractional inhibitory concentration index (FICI) of LNT113 using various antibiotics” value with E. coli [1] (setting [4]) turned out to be 1; with E. coli [1] (setting [5]) it was 0.75; in the assay with E. coli [1] (setting [6]) it was 1; with E. coli [1] (setting [7]) it was 2; in the assay with E. coli [1] (setting [8]), 0.75.

Regarding `CC(C)(O/N=C(\C(=O)N[C@@H]1C(=O)N2C(C(=O)[O-])=C(C[n+]3ccccc3)CS[C@H]12)c1csc(N)n1)C(=O)O` [Ceftazidime], the “Fractional inhibitory concentration index (FICI) of LNT113 using various antibiotics” value in the assay with E. coli [1] (setting [4]) was 2; in the assay with E. coli [1] (setting [5]), 2; with E. coli [1] (setting [6]), 2; in the assay with E. coli [1] (setting [7]), 1; in the assay on E. coli [1] (setting [8]), 1. Besides, in the assay with E. coli [1] (setting [9]), the “combination effect with LNT113, in words” value was “Neither ceftazidime and kanamycin showed a synergistic or additive effect; also recorded: little additive effect”.

With `O=C(N[C@H](CO)[C@H](O)c1ccc([N+](=O)[O-])cc1)C(Cl)Cl` [Chloramphenicol], the “Fractional inhibitory concentration index (FICI) of LNT113 using various antibiotics” value amounted to 1 in the assay on E. coli [1] (setting [4]), 0.75 in the assay with E. coli [1] (setting [5]), 2 in the assay with E. coli [1] (setting [7]) and 0.75 with E. coli [1] (setting [8]).

Regarding `NC[C@H]1O[C@H](O[C@H]2[C@H](O)[C@@H](O[C@H]3O[C@H](CO)[C@@H](O)[C@H](N)[C@H]3O)[C@H](N)C[C@@H]2N)[C@H](O)[C@@H](O)[C@@H]1O` [Kanamycin], the “Fractional inhibitory concentration index (FICI) of LNT113 using various antibiotics” value was found to be 2 in the assay on E. coli [1] (setting [4]), 1 with E. coli [1] (setting [5]), 1 in the assay with E. coli [1] (setting [7]) and 1 with E. coli [1] (setting [8]).

Consider `C[C@@H](O)[C@H]1C(=O)N2C(C(=O)O)=C(S[C@@H]3CN[C@H](C(=O)N(C)C)C3)[C@H](C)[C@H]12` [Meropenem], for which the “Fractional inhibitory concentration index (FICI) of LNT113 using various antibiotics” value in the assay on E. coli [1] (setting [4]) is listed as 0.63; in the assay on E. coli [1] (setting [5]), 0.75; in the assay on E. coli [1] (setting [6]) it was 1; with E. coli [1] (setting [7]), 2; with E. coli [1] (setting [8]), 1. Also, the “combination effect with LNT113, in words” value in the assay on E. coli [1] (setting [9]) is reported as “slight additive effect”.

Consider `CCn1cc(C(=O)O)c(=O)c2cc(F)c(N3CCNCC3)cc21` [Norfloxacin], for which the MIC of antibiotics is not below 128 µg/mL in the assay with E. coli [2] (E. coli CCARM 1A746) and 32 µg/mL with E. coli [2] (E. coli CCARM 1B684).

On to `[H]/N=C(/N)N[C@H]1[C@H](O)[C@@H](O)[C@H](O[C@@H]2O[C@@H](C)[C@](O)(C=O)[C@H]2O[C@@H]2O[C@@H](CO)[C@H](O)[C@@H](O)[C@@H]2NC)[C@@H](N/C(N)=N\[H])[C@@H]1O` [Streptomycin], for which the MIC of antibiotics in the assay on E. coli [2] (E. coli CCARM 1A746) and in the assay with E. coli [2] (E. coli CCARM 1B684) was not below 128 µg/mL throughout.

On to `CN(C)c1cc(NC(=O)CNC(C)(C)C)c(O)c2c1C[C@H]1C[C@H]3[C@H](N(C)C)C(O)=C(C(N)=O)C(=O)[C@@]3(O)C(O)=C1C2=O` [Tigecycline], for which the “Fractional inhibitory concentration index (FICI) of LNT113 using various antibiotics” value is 2 in the assay on E. coli [1] (setting [4]); 0.63 in the assay with E. coli [1] (setting [5]); 2 in the assay on E. coli [1] (setting [6]); 2 in the assay with E. coli [1] (setting [7]); 0.63 with E. coli [1] (setting [8]).

For Colistin, the “strains in which the synergistic effect with LNT113 was observed” value in the assay with E. coli [1] (5 different E. coli strains) is 4 strains among 5 strains. Also, the “MIC of endolysin combined with colistin: Colistin” value (“MIC of endolysin combined” for short) was 2 µg/mL in the assay with E. coli [1] (E. coli ATCC8738, EC340 0); 0.125 µg/mL with E. coli [1] (E. coli ATCC8738, EC340 16); 0.0625 µg/mL in the assay with E. coli [1] (E. coli ATCC8738, EC340 32); 0.25 µg/mL in the assay on E. coli [1] (E. coli ATCC8738, EC340 <2); 2 µg/mL in the assay with E. coli [1] (E. coli ATCC8738, mtEC340 0); 0.125 µg/mL in the assay with E. coli [1] (E. coli ATCC8738, mtEC340 16). Also, the “MIC of endolysin combined” value came out at 0.125 µg/mL in the assay with E. coli [1] (E. coli ATCC8738, mtEC340 32); 0.25 µg/mL in the assay with E. coli [1] (E. coli ATCC8738, mtEC340 <2); 2 µg/mL in the assay on E. coli [1] (E. coli ATOCB739, LNT113 0); 1 µg/mL in the assay on E. coli [1] (E. coli ATOCB739, LNT113 1); 0.5 µg/mL in the assay on E. coli [1] (E. coli ATOCB739, LNT113 2); 0.0625 µg/mL in the assay on E. coli [1] (E. coli ATOCB739, LNT113 4). Besides, the “MIC of endolysin combined” value in the assay on E. coli [1] (E. coli FORC81, LNT113 0) was 16 µg/mL; in the assay on E. coli [1] (E. coli FORC81, LNT113 2), 4 µg/mL; in the assay with E. coli [1] (E. coli FORC81, LNT113 4), 1 µg/mL; with E. coli [1] (E. coli FORC81, LNT113 <0.25) it was 8 µg/mL; in the assay on E. coli [1] (E. coli UPEC3150, LNT113 0), 4 µg/mL; with E. coli [1] (E. coli UPEC3150, LNT113 1) it was 2 µg/mL. Moreover, the “MIC of endolysin combined” value in the assay on E. coli [1] (E. coli UPEC3150, LNT113 2) came out at 0.5 µg/mL; with E. coli [1] (E. coli UPEC3150, LNT113 4), 0.0625 µg/mL. Besides, the “combination effect with LNT113 (FICI class)” value in the assay on E. coli [1] (E. coli ATCC 8739), in the assay with E. coli [1] (E. coli FORC81), in the assay with E. coli [1] (E. coli UPEC 3150) and with E. coli [1] (setting [9]) was “synergistic effect (a synergistic effect ≤0.5)” throughout. Moreover, the “MIC of colistin in presence of endolysin EC340 or mtEC340” value with E. coli [1] (Table 3) is given as “significantly reduced”. For the same compound, the “Fractional inhibitory concentration index (FICI) of LNT113 using various antibiotics” value is recorded as 0.25 in the assay on E. coli [1] (setting [4]); 0.5 in the assay with E. coli [1] (setting [5]); 0.63 with E. coli [1] (setting [6]); 0.5 with E. coli [1] (setting [7]); 0.38 in the assay with E. coli [1] (setting [8]); 0.375 with E. coli [1] (antibiotic combined with LNT113, E. coli UPEC 3150, listed as colistin). The MIC of colistin with E. coli [1] (colistin alone) was 16; in the assay on E. coli [1] (in combination with LNT113 of 4 mg/ml), 1. For the same compound, in the assay on E. coli [3], the “decrease of bacterial cells” value amounted to 1.2 log.

Values taken from patent US12102667B2, “Polypeptides and antibiotics against gram-negative bacterium comprising the same” (priority 2021, dated 2024).
